Results on 5 molecules are retold here after patent US8324161B2, “Leukotriene B4 binding soluble lipocalin receptor from ixodes ricinus” (Universite Libre de Bruxelles, priority 2007, dated 2012).

For one assay, the system named is LTB4-LIR polypeptide. The experiment in a line: inhibition by eicosanoids of [3H]LTB4 binding to LTB4-LIR polypeptide. Set-up: species or system Ixodes ricinus. The conditions noted are these: for inhibition of 1 nM [3H]LTB4 binding to LTB4-LIR polypeptide: eicosanoid at a concentration of 10 μM, FIG. 4. As to the method:
(§1) The polypeptide according to the invention was therefore tested for its ability to bind specifically leukotriene B4. The affinity-purified LTB4-LIR polypeptide was tested in binding assays according to a previously described method (Warlow, R. S., and Bernard, C. C. A. (1987). Solubilization and characterization of moderate and high affinity histamine binding sites on human blood mononuclear cells. Mol. Immunol. 24, 27-37).
(§2) The inhibition by various eicosanoids of [3H]LTB4 binding to LTB4-LIR polypeptide was also examined. […] Next, various concentrations of LTA4, LTB4, LTC4, LTD4, HETE, HPETE, and LXA4 was tested in the competition with [3H]LTB4 binding to LTB4-LIR polypeptide.

The next assay relates to neutrophils. Briefly: transendothelial migration of neutrophils stimulated by LTB4 through Ea.hy926 endothelial cell layer. It counts as cell-based, human. The conditions noted are these: 2 hours at 37° C.; neutrophils from three volunteers, in triplicate; FIG. 6. On the procedure:
The principal LTB4 function is the chemo-attraction of neutrophils to the sub-endothelial spaces of an inflammation site. One step of this process is the diapedesis of the neutrophils through the endothelial cells layer. The chemo-attractant effect of LTB4-LIR6 was tested by using a model of transendothelial migration of neutrophils.
Ea.hy926 cells, an endothelial cell line derived from the human umbilical vein, were used. These cells closely resemble HUVEC and maintain several characteristics of differentiated endothelium. The cells were allowed to reach confluence in chamber containing DMEM (Cambrex, Vervier, Belgium), supplemented with 10% Fetal Calf Serum, 2 mM L-Glutamine, 100 U/ml penicillin, 100 μg/ml streptomycin and HAT ([…], 0.4 μM aminopterin, 16 μM thymidine). […]
In the transendothelial assay, the protocol described by Nohgawa et al. was used (Nohgawa M., Sasada M., Maeda A., Asagoe K., Harakawa N., Takano K., Yamamoto K., Okuma M. Leukotriene B4-activated human endothelial cells promote transendothelial neutrophil migration. J Leuc. Biol, 1997 (62): 203-209). […] After 2 hours at 37° C., the upper chambers were removed and cells in lower chambers were counted. […]

Assay [1] is described as follows: saturation binding of [3H]LTB4 to affinity-purified LTB4-LIR polypeptide. On the procedure:
as §1, §2

`CCCCC/C=C\C\C=C/C=C/C=C/[C@@H](SC[C@H](N)C(=O)O)[C@@H](O)CCCC(=O)O` [LTE4]: in the assay on LTB4-LIR polypeptide, the “inhibition of 1 nM [3H]LTB4 binding to LTB4-LIR polypeptide” value (from here on “inhibition of 1 nM [3H]LTB4 binding”) is given as “significant competitions”.

With `CCCCC/C=C\C[C@@H](O)/C=C/C=C\C/C=C\CCCC(=O)O` [12(R)-HETE], the “inhibition of 1 nM [3H]LTB4 binding” value with LTB4-LIR polypeptide was “significant competitions”.

`CCCCC/C=C\C[C@@H](O)/C=C/C=C/C=C\[C@@H](O)CCCC(=O)O` [LTB4, leukotriene B4]: in the assay on LTB4-LIR polypeptide, the “inhibition of 1 nM [3H]LTB4 binding” value is “significant competitions”. The “competition with [3H]LTB4 binding to LTB4-LIR polypeptide at various concentrations” value in the assay on LTB4-LIR polypeptide (various concentrations, FIG. 5) is “dose-dependent inhibition”.

For the molecule `CCCCC/C=C\C\C=C/C=C/C=C/[C@@H](SC[C@H](N)C(=O)NCC(=O)O)[C@@H](O)CCCC(=O)O` [LTD4], the “inhibition of 1 nM [3H]LTB4 binding” value in the assay with LTB4-LIR polypeptide was “significant competitions”.

B1: LTB4-LIR polypeptide: Leukotriene B4 binding Lipocalin from Ixodes ricinus, amino acid sequence SEQ ID NO: 2, expressed with V5-6×His tag in a baculovirus system (protein, listed as Ixodes ricinus)
chain: MLRIAVVAALCCFGTGTVSRFQQNATERHYQELNSNLSKYQDAWKSNTENAEYVLAYRTFQDIERTRIRRCVSATLRYKNKKNRTTVHRLRYYNTRDRKWEGHSVLTRFNATPGYTVPNLMLMSSYHNESDEGRLYWTLYSQYGSCNIVRVERNGGCELWVRKGLQDYISSCCWFIYKSYCGNENYQIYNTTYCKRKGPE
modifications: V5-6×His tag
As usually defined, the Kd is the equilibrium constant for the complex coming apart. As for B1, the “effect on the transendothelial migration of neutrophils stimulated by LTB4” value in the assay with neutrophils is “significant dose-response effect”. Besides, the Kd in assay [1] (FIG. 3, read-out: Kd value of specific and saturable binding for [3H]LTB4) was found to be 400 pM. Further, in assay [1] (compared with literature Kd of human BLT1 (Yokomizo et al. 2001)), the “Kd lower than that for human BLT1 membrane receptor” value is “about 5 fold”. The “Kd lower than that for human BLT2 membrane receptor” value in assay [1] (compared with literature Kd of human BLT2 (Yokomizo et al. 2001)) is given as “about 60 fold”.
